Active and inactive are the calls of the source. The calls are words filed in the database; no cut-off is given here.
What was measured:
Type in all cases: functional, cell-based
[1] = tested on: HEI-OC1; experiment: Protective activity against […] HEI-OC1 cells assessed as cell viability at 10 uM after 48 hrs by CCK8 assay
[2] = tested on: L6; experiment: Induction of glucose uptake in rat L6 myoblasts at 50 uM after 24 hrs
[3] = tested on: L6; experiment: Induction of glucose uptake in rat L6 myoblasts after 24 hrs; settings: dose 0.3125-80 µM
[4] = tested on: L6; experiment: Induction of glucose uptake in rat L6 myotubes after 24 to 48 hrs; settings: dose 2.5-80 µM, time 24-48 hrs

Compound	Activity [1]	Activity [2]	Activity [3]	Activity [4]
CCCCCC[C@H](C)[C@@H]1CC(=O)N[C@@H](Cc2c[nH]c3ccccc23)C(=O)N[C@@H](Cc2ccccc2)C(=O)N[C@H](CC(C)C)C(=O)O1	Active			
CCCCCC[C@H](C)[C@@H]1CC(=O)N[C@@H](Cc2c[nH]c3ccccc23)C(=O)N[C@@H](Cc2ccc(O)cc2)C(=O)N[C@H](CC(C)C)C(=O)O1		Active		
CCCCCC[C@H](C)[C@@H]1CC(=O)N[C@@H](Cc2c[nH]c3ccccc23)C(=O)N[C@@H](Cc2ccccc2)C(=O)N[C@H]([C@@H](C)CC)C(=O)O1	Active	Active	Dose-Dependent Effect	Dose-Dependent Effect
CCCCCC[C@H](C)[C@@H]1CC(=O)N[C@@H](Cc2ccc(O)cc2)C(=O)N[C@@H](Cc2ccccc2)C(=O)N[C@H]([C@@H](C)CC)C(=O)O1	Active			
CCCCCCC(C)[C@@H]1CC(=O)N[C@@H](Cc2ccc(O)cc2)C(=O)N[C@@H](Cc2ccc(O)cc2)C(=O)N[C@H]([C@@H](C)CC)C(=O)O1 (some centres undefined)		Active		
CCCCCC[C@H](C)[C@@H]1CC(=O)N[C@@H](Cc2c[nH]c3ccccc23)C(=O)N[C@@H](Cc2ccc(O)cc2)C(=O)N[C@H]([C@@H](C)CC)C(=O)O1		Active		

Source: ChEMBL document CHEMBL4819059, “3-Hydroxy-4-methyldecanoic Acid-Containing Cyclotetradepsipeptides from an Endolichenic Beauveria sp” (J Nat Prod, 2021)
